# Assay results taken from paper PMC8667925, “New 1,2,4-oxadiazole derivatives with positive mGlu4 receptor modulation activity and antipsychotic-like properties” (Journal of Enzyme Inhibition and Medicinal Chemistry, 2021).
# Entries after “also recorded” stand apart in the source; their conditions may differ. Where two headings read alike, the source gives them in different places. Marks after values point to notes of the source that are not given here.
# Assays:
# [1] = molecular target: mGlu4 receptor; conditions: cited from earlier work
# [2] = test system: DOI-induced HTR; parameters: method as in PMID 24947466; conditions: medium dose of 3, 10 and 30 mg/kg; cited from earlier work
# [3] = test system: Albino Swiss mice; assay: DOI-induced head twitch test (HTR); format: in vivo; conditions: over the doses 2.5, 5 and 10 mg/kg i.p.; DOI 2.5 mg/kg i.p.
# Experimental: (§1) The compounds were dissolved in a small amount of 100% EtOH and then adjusted with 20% cyclodextrin, and the pH was adjusted to 6.0. The investigated compounds were administered intraperitoneally (i.p.) 60 min before the behavioural test. Control drugs i.e. diazepam, clozapine and imipramine (Sigma–Aldrich, St. Louis, USA), were administered i.p. 60 min before the behavioural test. Cyclodextrin (20%) was used as a vehicle. All solutions were prepared immediately prior to the experiments and were administered at a constant volume of 10 ml/kg.
# The experiments were performed according to the procedure described in our previous studies[75]^,[80]. Briefly, to habituate mice to the experimental environment, each animal was transferred to a 12 cm (diameter) × 20 cm (height) glass cage lined with sawdust 30 min before treatment. Test compounds were administered intraperitoneally (i.p.) at doses of 2.5, 5, and 10 mg/kg body weight 60 min before the test was performed. The head twitch response (HTR) in mice was induced by DOI (2.5 mg/kg, i.p.). Immediately after treatment, the number of head twitches was counted during a 20 min session. Haloperidol and clozapine were used as the reference compounds at active doses of 0.2 and 5 mg/kg, respectively.
# [4] = test system: Albino Swiss mice; assay: modified stress-induced hyperthermia (SIH) in singly housed mice; format: in vivo; conditions: over the doses 5, 10 and 20 mg/kg i.p.
# Experimental: as §1
# The procedure for modified stress-induced hyperthermia was adapted from Van der Heyden[93] and based on the procedure introduced by Borsini[94]. Each experimental group consisted of eight to ten animals. The animals were housed individually in a 26 × 21 × 14 cm Macolon cage 24 h before testing. For this assay, the body temperature was measured for each mouse at t = 0 min (T1) and t = +15 min (T2). Albino Swiss mice were placed into a new cage immediately following T1, with the difference in temperature (T2−T1) used as the measure of stress-induced hyperthermia. […] A comparison between T1 in vehicle-treated mice and those administered the test compound was used to determine whether the agent affects body temperature alone. Diazepam (5 mg/kg) was used as the positive control. The rectal temperature was measured to the nearest 0.1 °C with a Physitemp Theralert thermometer, TH-5, Clifton NJ, USA, with the temperature sensor for mice, Type T, Copper-Constantan Thermocouple, Braintree Scientific Inc. The lubricated thermistor probe (2 mm diameter) was inserted 20 mm into the rectum. The mouse was held at the base of the tail during this determination, and the thermistor probe was left in place until a constant reading was obtained for 15 s. The effects of the investigated compounds on the SIH response were investigated after administration of the compounds at doses of 5, 10 and 20 mg/kg.
# [5] = molecular target: T1, mGlu7 receptor (Homo sapiens, UniProt Q14831); assay: cAMP accumulation assay in cells expressing mGlu7 receptor (agonist, PAM, NAM modes); format: cell-based; conditions: 10 µM, agonist mode
# T1 construct: mGlu4 receptor NM_000841, mGlu7 receptor NM_000844.2, and mGlu8 receptor NM_000845; expressed in transfected cells; host or cells: T-REx 293
# Experimental: (§2) The compounds were tested in the agonist, PAM (in the presence of EC20 concentration of L-Glu) or NAM (with EC80 of L-Glu) modes of forskolin-induced cAMP using T-REx 293 cells expressing the protein of a given receptor.
# (§3) Figure 4. The activity of compounds 34, 37, 49, 52, 60, 62 and reference drugs MMPIP (a selective NAM of mGlu7 receptor) and AZ12216052 (a PAM of mGlu8 receptor) tested at a concentration of 10 μM in the cAMP accumulation assay in cells expressing mGlu7 and mGlu8 receptors. The percent activity refers to two extreme FRET signals: 0% corresponds to forskolin treatment alone and 100% to maximal FRET signal for the control cells (without any treatment). A/D – agonistic activity; B/E – PAM activity measured in the presence of L-Glu at the EC20 concentration (0.1 mM for mGlu7 receptor, and 1 μM for mGlu8 receptor); C/F – NAM activity measured in the presence of L-Glu at the EC80 concentration (1 mM for mGlu7 receptor, 10 μM for Glu8 receptor).
# (§4) Determination of the intracellular cAMP through a homogeneous time-resolved fluorescence (HTRF) cAMP dynamic 2 kit from Cisbio (Codolet, France) was described previously by Chruścicka et al.[91]. Briefly, cells were grown in DMEM supplemented with 10% foetal bovine serum (FBS) (tetracycline free). Forty-eight hours before the experiments, mGlu receptor expression was induced by the addition of 0.75 µg/mL tetracycline. Twenty hours before the experiment, FBS and L-Glu were removed from the medium. Thereafter, the cells were scraped and centrifuged. A cell pellet was suspended in Hanks-HEPES (130 mM NaCl, 5.4 mM KCl, 1.8 mM CaCl2, 0.8 mM MgSO4, 0.9 mM NaH2PO4, 20 mM HEPES, and 3.25 mM glucose; pH 7.4). Then, the cell suspension was incubated in the presence of 10 µM forskolin (or 3 µM forskolin for mGlu7 receptor), the agonist L-glutamate and a compound for 5 min. Next, 10 µl of the cell suspension was mixed with 5 µl of cAMP-d2 conjugate and 5 µL of anti-cAMP cryptate conjugate. After 1 h of incubation at rt, the fluorescence at 620 nm and 665 nm was read (Tecan Infinite M1000). The results were calculated as the 665 nm/620 nm ratio multiplied by 10^4. Each sample was prepared in triplicate.
# [6] = molecular target: T2, mGlu4 receptor (Homo sapiens, UniProt Q14833); assay: forskolin-stimulated cAMP assay, PAM mode (EC20 of L-Glu), T-REx 293 cells; format: cell-based; conditions: SEM where given; for EC50 / Emax: PAM mode; for EC50: EC20 (3 µM) L-Glu, T-REx 293 cells expressing human mGlu4 receptor; for Emax: T-REx-293, human mGlu4, read-out: GluMax; for Fold shift of L-Glu dose-response curve: in the presence of 10 µM of compound
# T2 construct: mGlu4 receptor NM_000841, mGlu7 receptor NM_000844.2, and mGlu8 receptor NM_000845; expressed in transfected cells; host or cells: T-REx 293
# Experimental: The activity of the compounds was assessed in vitro in a forskolin-stimulated cAMP assay in T-REx 293 cells expressing human mGlu4 receptors in the presence of an EC20 concentration of L-Glu; a PAM was identified if it potentiated cAMP inhibition by the Gi/o-dependent pathway of mGlu4 receptor activation; i.e. if it was able to produce a leftward shift in the potency of the endogenous agonist.
# as §4
# Statistical calculations were performed using GraphPad Prism 5.04 software (GraphPad Software, La Jolla, CA, USA). The curves were fitted to a 3-parametric logistic equation, allowing for the determination of EC50 values. Each data point was analysed in triplicate.
# [7] = test system: Salmonella typhimurium strains TA98 and TA100; format: cell-based; conditions: TA98 and TA100, with and without S9, ≤ 30 µM
# Experimental: The primary assessment of the cardiotoxic risk and mutagenic potential of the six selected 1,2,4-oxadiazole derivatives was performed in the hERG channel assay and the mini-AMES test, respectively. The mutagenicity potential was determined in strains TA98 (frameshift mutation) and TA100 (base-pair substitution) of Salmonella typhimurium in the presence and absence of an exogenous metabolic activation system (rat liver S9 fraction) containing mammalian microsomal enzymes.
# The Ames microplate fluctuation protocol (MPF) assay was performed with Salmonella typhimurium strains TA98 and TA100, […]. The bacterial strain as well as the exposure and indicator medium were obtained from Xenometrix AG (Allschwil, Switzerland). […] After the addition of indicator medium, each well of the 24-well plate was aliquoted into 48 wells of a 384-well plate.
# The occurrence of reversion events to histidine prototrophy was observed as the growth of bacteria in the indicator medium without histidine after 72 h of incubation at 37 °C. Bacterial growth in 384-well plates was visualised by a colour change of medium from violet to yellow due to the addition of pH indicator dye. The absorbance was measured with a microplate reader (EnSpire) at 420 nm. The reference mutagen NQNO (0.5 mM) was used as a positive control in the experiments. The medium control baseline (MCB) was calculated, as derived from the mean number of revertants in the medium control plus one standard deviation.
# AMES test was conducted with two Salmonella typhimurium strains TA98 and TA100 in the presence or absence of liver homogenate S9 to simulate the metabolic conversions of tested compounds with liver enzymes. The AMES MPF 98/100 assay from Xenometrix was performed as described by the supplier. Data were analysed with the AMES MPF calculation […]
# (also on this page, place not known: TA10 cal culation TA98 - S9 Revertants TA98 + S9 Revertants - S9 Revertants TA100 + S9 Revertants TA98 - S9 Revertants TA98 + S9 Revertants TA100 - S9 Revertants 0 TA100 + S9 Revertants)
# [8] = molecular target: T2, mGlu4 receptor; assay: forskolin-induced cAMP assay, agonist mode, T-REx 293 cells; format: cell-based
# Experimental: as §2, §4
# [9] = molecular target: T3, mGlu8 receptor (Homo sapiens, UniProt O00222); assay: cAMP accumulation assay in cells expressing mGlu8 receptor (agonist, PAM, NAM modes); format: cell-based; conditions: 10 µM, agonist mode
# T3 construct: mGlu4 receptor NM_000841, mGlu7 receptor NM_000844.2, and mGlu8 receptor NM_000845; expressed in transfected cells; host or cells: T-REx 293
# Experimental: as §2, §3, §4
# [10] = test system: untransfected cells of the T-REx 293 line; assay: forskolin-induced cAMP accumulation in untransfected (mock) cells, control experiment; format: cell-based; conditions: untransfected T-REx 293 cells
# Experimental: 2. In vitro mGlu receptor selectivity profile
# Figure S1. Activity of compounds 34, 37, 49, 52, 60 and 62 in forskolin -induced cAMP accumulation in untransfected cells of the T-REx 293 line. Similar to reference mGlu4 receptor […]
# cAMP assay in the mock T-REx 293 cell line. […]
# receptor used as reference drug) tested at a concentration of 10 μM in NAM mode (in the presence of EC80 concentration of L-Glu (30 μM)) by the cAMP accumulation assay in cells expressing mGlu4 receptor. […]
# T2 sequence (Q14833 33-912): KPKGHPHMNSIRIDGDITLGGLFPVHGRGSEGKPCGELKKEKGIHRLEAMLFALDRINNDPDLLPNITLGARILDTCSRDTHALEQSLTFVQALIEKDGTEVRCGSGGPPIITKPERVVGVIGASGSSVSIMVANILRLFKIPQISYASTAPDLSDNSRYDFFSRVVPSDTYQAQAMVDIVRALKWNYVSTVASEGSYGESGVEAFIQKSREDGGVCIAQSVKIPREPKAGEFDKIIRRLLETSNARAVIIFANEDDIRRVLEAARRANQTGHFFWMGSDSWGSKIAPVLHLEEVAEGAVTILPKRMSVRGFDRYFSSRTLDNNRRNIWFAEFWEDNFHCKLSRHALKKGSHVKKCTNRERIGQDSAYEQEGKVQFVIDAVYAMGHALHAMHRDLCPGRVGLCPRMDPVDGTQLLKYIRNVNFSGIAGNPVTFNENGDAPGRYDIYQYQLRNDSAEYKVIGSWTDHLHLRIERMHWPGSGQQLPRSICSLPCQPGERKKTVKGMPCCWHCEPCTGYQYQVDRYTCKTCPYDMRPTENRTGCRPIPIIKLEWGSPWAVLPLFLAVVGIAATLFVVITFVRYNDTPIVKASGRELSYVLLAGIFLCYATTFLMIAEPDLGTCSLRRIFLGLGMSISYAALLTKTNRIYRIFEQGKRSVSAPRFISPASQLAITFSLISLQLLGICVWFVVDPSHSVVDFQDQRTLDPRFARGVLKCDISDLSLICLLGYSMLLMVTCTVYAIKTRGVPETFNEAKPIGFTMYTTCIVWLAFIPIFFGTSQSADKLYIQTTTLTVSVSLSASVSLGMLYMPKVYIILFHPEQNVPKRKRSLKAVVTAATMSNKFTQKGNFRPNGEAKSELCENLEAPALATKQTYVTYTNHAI
# T1 sequence (Q14831 35-915): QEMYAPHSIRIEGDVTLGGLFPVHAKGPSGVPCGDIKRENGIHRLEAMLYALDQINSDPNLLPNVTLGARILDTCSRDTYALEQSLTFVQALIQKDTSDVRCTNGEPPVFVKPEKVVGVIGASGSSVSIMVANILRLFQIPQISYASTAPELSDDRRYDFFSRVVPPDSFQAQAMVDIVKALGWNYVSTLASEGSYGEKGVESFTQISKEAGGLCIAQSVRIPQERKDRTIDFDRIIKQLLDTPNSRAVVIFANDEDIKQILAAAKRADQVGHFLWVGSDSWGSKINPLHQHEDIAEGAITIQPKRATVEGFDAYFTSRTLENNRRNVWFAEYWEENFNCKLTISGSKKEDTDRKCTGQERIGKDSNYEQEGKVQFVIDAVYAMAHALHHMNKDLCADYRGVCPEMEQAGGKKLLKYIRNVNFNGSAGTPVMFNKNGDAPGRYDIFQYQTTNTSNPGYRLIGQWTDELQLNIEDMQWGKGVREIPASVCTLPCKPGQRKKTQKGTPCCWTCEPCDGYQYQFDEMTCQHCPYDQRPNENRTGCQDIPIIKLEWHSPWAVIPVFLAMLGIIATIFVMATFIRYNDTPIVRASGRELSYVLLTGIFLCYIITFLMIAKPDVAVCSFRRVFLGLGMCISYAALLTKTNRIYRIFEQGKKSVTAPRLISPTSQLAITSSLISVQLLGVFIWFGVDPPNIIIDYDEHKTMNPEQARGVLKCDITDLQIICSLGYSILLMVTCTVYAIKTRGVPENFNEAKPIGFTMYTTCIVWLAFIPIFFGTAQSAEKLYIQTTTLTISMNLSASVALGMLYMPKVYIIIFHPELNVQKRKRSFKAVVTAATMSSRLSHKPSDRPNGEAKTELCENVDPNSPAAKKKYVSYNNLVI
# T3 sequence (O00222 34-908): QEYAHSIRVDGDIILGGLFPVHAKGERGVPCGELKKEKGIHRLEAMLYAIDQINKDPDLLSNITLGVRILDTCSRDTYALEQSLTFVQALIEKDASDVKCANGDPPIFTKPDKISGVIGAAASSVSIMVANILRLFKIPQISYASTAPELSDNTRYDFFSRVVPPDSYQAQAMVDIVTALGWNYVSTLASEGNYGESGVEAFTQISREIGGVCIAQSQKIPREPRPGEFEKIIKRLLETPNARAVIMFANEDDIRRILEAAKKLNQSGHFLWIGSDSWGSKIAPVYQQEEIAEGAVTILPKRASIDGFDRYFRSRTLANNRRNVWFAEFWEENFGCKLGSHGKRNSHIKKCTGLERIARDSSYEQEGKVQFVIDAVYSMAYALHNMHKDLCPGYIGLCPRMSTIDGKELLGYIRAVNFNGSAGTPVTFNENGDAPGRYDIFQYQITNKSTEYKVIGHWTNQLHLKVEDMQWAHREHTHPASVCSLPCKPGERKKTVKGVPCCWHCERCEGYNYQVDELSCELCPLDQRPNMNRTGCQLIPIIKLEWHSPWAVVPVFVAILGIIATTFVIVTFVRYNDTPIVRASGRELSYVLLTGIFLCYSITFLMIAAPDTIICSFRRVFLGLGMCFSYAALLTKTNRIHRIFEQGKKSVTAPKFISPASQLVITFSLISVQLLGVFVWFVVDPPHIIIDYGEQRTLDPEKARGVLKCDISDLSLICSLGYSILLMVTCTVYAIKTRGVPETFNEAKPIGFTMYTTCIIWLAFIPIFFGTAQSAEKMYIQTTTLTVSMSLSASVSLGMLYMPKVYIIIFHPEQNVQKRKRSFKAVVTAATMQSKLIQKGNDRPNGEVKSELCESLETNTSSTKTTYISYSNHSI
structure (smiles),measurement,setting,value
Cc1ccnc(Nc2nc(-c3cn[nH]c3)c(C)s2)n1 [ADX88178],reduction of DOI-induced HTR,[2],≤ 30%
O=C(Nc1ccc(-c2noc(-c3ccccc3)n2)c(Cl)c1)c1ccccn1 [Compound 49],effect on DOI-induced HTR,[3],not effective; also recorded: no influence
same,effect on SIH response,[4],not effective
same,agonistic activity at mGlu7 receptor,[5],direct agonistic activity
same,EC50,[6],352 nM
same,Emax,[6],123%
same,Fold shift of L-Glu dose-response curve,[6],6.77 (0.53)^d
same,mutagenic activity (mini-AMES),[7],no mutagenic potential
"Cc1cc(NC(=O)c2ccccn2)ccc1-c1noc(-c2ccccc2Cl)n1 [Compound 62, N-(4-(5-(2-chlorophenyl)-1,2,4-oxadiazol-3-yl)-3-methylphenyl)picolinamide]",effect on DOI-induced HTR,[3],significant anxiolytic- and antipsychotic-like properties; also recorded: at all doses significantly reduced; also recorded: Clear dose-response effects; also recorded: clear dose-dependent response and high potency; also recorded: comparable to that of clozapine
same,agonistic action at mGlu4 receptor,[8],lacked agonistic action
same,agonistic activity at mGlu8 receptor,[9],lacked agonistic action
same,effect on SIH response,[4],significant anxiolytic- and antipsychotic-like properties; also recorded: significantly reduced SIH responses at all three doses; also recorded: at all doses significantly reduced the SIH response
same,agonistic activity at mGlu7 receptor,[5],lacked agonistic action
same,EC50,[6],308 nM
same,Emax,[6],135%
same,Fold shift of L-Glu dose-response curve,[6],3.3 (0.34)^d
same,mutagenic activity (mini-AMES),[7],no mutagenic potential
O/N=c1\cc(-c2cc3sccc3cn2)oc2ccc(CCCN3CCOCC3)cc12 [PXT002331],EC50,"[1]; PAM, read-out: mGlu4 PAM potency EC50",46 nM
O=C(Nc1cc(Cl)cc(Cl)c1)[C@H]1CCCC[C@H]1C(=O)O [VU0155041],effect on forskolin-induced cAMP accumulation in mock cells,[10],no effects
same,EC50,"[1]; reference ago-PAM, read-out: agonist activity at mGlu4 receptor, EC50",2500 nM
O=C(Nc1ccccn1)C12CC1C(=NO)c1ccccc1O2 (centres unmarked) [VU0359516],EC50,"[1]; PAM, read-out: EC50 (mGlu4 receptor PAM)",380 nM
FC(F)(F)c1nccc2cc(Nc3n[nH]c4ncccc34)ccc12 [Valiglurax],EC50,"[1]; PAM, read-out: mGlu4 receptor PAM potency EC50",64.6 nM
